Data: BindingDB's records for doi:10.1016/j.bmc.2004.12.045 (Cnrs, 2005)
Counter-ions that a name gives are not always drawn.

Each compound was assayed against Glycogen synthase kinase-3 beta (Sus scrofa) (assay: Kinase activities were assayed in buffers containing substrate, enzyme, and inhibitor at 30 °C in the presence of 15 uM ATP/ [gamma-32P] ATP. 32P incorporation was measured with a scintillation counter. The IC50 is the inhibitor concentration, which inhibits 50% of kinase activity that catalyzes the transfer of the terminal phosphate from 32P l). Settings: pH 7.5.

Point of comparison: `Cc1nc2c(c3c4ccccc4n(CCN(C)C)c13)CNC2=O` [10-[2-(dimethylamino)ethyl]-8-methyl-4,7,10-triazatetracyclo[7.7.0.0^{2,6}.0^{11,16}]hexadeca-1(9),2(6),7,11(16),12,14-hexaen-5-one], IC50 7 µM. Against it:
- Cc1cc(C)c(S(=O)(=O)NCc2nc3c(c4c2[nH]c2ccccc24)CNC3=O)c(C)c1 [2,4,6-Trimethyl-N-(3-oxo-1,2,3,6-tetrahydro-2,4,6-triaza-cyclopenta[c]fluoren-5-ylmethyl)-benzene-sulfonamide] — 4.7-fold lower, 1.5 µM
- Cc1c2c(c(C#N)c3c4ccccc4n(COCC[Si](C)(C)C)c13)C(=O)N(C)C2=O [2,4-dimethyl-1,3-dioxo-5-{[2-(trimethylsilyl)ethoxy]methyl}-1H,2H,3H,5H-pyrrolo[3,4-b]carbazole-10-carbonitrile] — higher, > 10 µM
- Cc1nc2c(c3c1[nH]c1ccccc13)CN(CCN(C)C)C2=O [2-(2-Dimethylaminoethyl)-5-methyl-1,2-di-hydro-6H-2,4,6-triaza-cyclopenta[c]fluoren-3-one] — higher, > 10 µM
- CN(C)CC(=O)NCc1nc2c(c3c1[nH]c1ccccc13)CNC2=O [2-(dimethylamino)-N-({5-oxo-4,7,10-triazatetracyclo[7.7.0.0^{2,6}.0^{11,16}]hexadeca-1(9),2(6),7,11(16),12,14-hexaen-8-yl}methyl)acetamide] — within 1.5-fold, 8 µM
- O=C1c2nc(-c3ccccc3)c3[nH]c4ccccc4c3c2CN1Cc1ccccc1 [2-Benzyl-5-phenyl-1,2-dihydro-6H-2,4,6-triazacyclopenta[c]fluoren-3-one] — higher, > 10 µM
- Cc1cc2c(c3c4ccccc4n(COCC[Si](C)(C)C)c13)C(=O)N(CCN(C)C)C2=O [2-[2-(dimethylamino)ethyl]-5-methyl-6-{[2-(trimethylsilyl)ethoxy]methyl}pyrrolo[3,4-c]carbazole-1,3(2H,6H)-dione] — higher, > 10 µM
- Cc1cc2c(c3c4ccccc4n(COCC[Si](C)(C)C)c13)C(=N)N(CCN(C)C)C2=O [4-[2-(dimethylamino)ethyl]-3-imino-8-methyl-10-{[2-(trimethylsilyl)ethoxy]methyl}-4,10-diazatetracyclo[7.7.0.0^{2,6}.0^{11,16}]hexadeca-1(9),2(6),7,11(16),12,14-hexaen-5-one] — higher, > 10 µM
- Cc1nc2c(c3c1[nH]c1ccccc13)CNC2=O [5-Methyl-1,2-dihydro-6H-2,4,6-triaza-cyclopenta[c]fluoren-3-one] — higher, > 10 µM
- Cc1cc2c(c3c4ccccc4n(COCC[Si](C)(C)C)c13)CNC2=O [5-Methyl-6-(2-trimethylsilanyl-ethoxymethyl)-1,2-dihydro-6H-pyrrolo[3,4-c]carbazol-3-one] — higher, > 10 µM
- NCc1nc2c(c3c1[nH]c1ccccc13)CNC2=O [8-(aminomethyl)-4,7,10-triazatetracyclo[7.7.0.0^{2,6}.0^{11,16}]hexadeca-1(9),2(6),7,11(16),12,14-hexaen-5-one hydrochloride] — within 1.5-fold, 5.5 µM
- Cc1c2c(c(C#N)c3c4cc(Cl)ccc4n(COCC[Si](C)(C)C)c13)C(=O)N(C)C2=O [8-chloro-2,4-dimethyl-1,3-dioxo-5-{[2-(trimethylsilyl)ethoxy]methyl}-1H,2H,3H,5H-pyrrolo[3,4-b]carbazole-10-carbonitrile] — higher, > 10 µM
- Cc1cc2c(c3c1[nH]c1ccccc13)CNC2=O [8-methyl-4,10-diazatetracyclo[7.7.0.0^{2,6}.0^{11,16}]hexadeca-1(9),2(6),7,11(16),12,14-hexaen-5-one] — higher, > 10 µM
- Cc1c2c(c(CN)c3c4ccccc4n(COCC[Si](C)(C)C)c13)C(=O)N(C)C2=O [10-(aminomethyl)-2,4-dimethyl-5-{[2-(trimethylsilyl)ethoxy]methyl}-1H,2H,3H,5H-pyrrolo[3,4-b]carbazole-1,3-dione] — higher, > 10 µM
- Cc1c2c(c(CN)c3c4ccccc4n(COCC[Si](C)(C)C)c13)C(=O)N(Cc1ccccc1)C2=O [10-(aminomethyl)-2-benzyl-4-methyl-5-{[2-(trimethylsilyl)ethoxy]methyl}-1H,2H,3H,5H-pyrrolo[3,4-b]carbazole-1,3-dione] — higher, > 10 µM
- Cc1c2c(c(CNC(=O)CN(C)C)c3c4ccccc4n(COCC[Si](C)(C)C)c13)C(=O)N(C)C2=O [N-[(2,4-dimethyl-1,3-dioxo-5-{[2-(trimethylsilyl)ethoxy]methyl}-1H,2H,3H,5H-pyrrolo[3,4-b]carbazol-10-yl)methyl]-2-(dimethylamino)acetamide] — higher, > 10 µM
- Cc1c2c(c(CNC(=O)CCN(C)C)c3c4ccccc4n(COCC[Si](C)(C)C)c13)C(=O)N(C)C2=O [N-[(2,4-dimethyl-1,3-dioxo-5-{[2-(trimethylsilyl)ethoxy]methyl}-1H,2H,3H,5H-pyrrolo[3,4-b]carbazol-10-yl)methyl]-3-(dimethylamino)propanamide] — higher, > 10 µM
- Cc1c2c(c(CNC(=O)CN(C)C)c3c4ccccc4n(COCC[Si](C)(C)C)c13)C(=O)N(Cc1ccccc1)C2=O [N-[(2-benzyl-4-methyl-1,3-dioxo-5-{[2-(trimethylsilyl)ethoxy]methyl}-1H,2H,3H,5H-pyrrolo[3,4-b]carbazol-10-yl)methyl]-2-(dimethylamino)acetamide] — higher, > 10 µM
- Cc1c2c(c(CNC(=O)CCN(C)C)c3c4ccccc4n(COCC[Si](C)(C)C)c13)C(=O)N(Cc1ccccc1)C2=O [N-[(2-benzyl-4-methyl-1,3-dioxo-5-{[2-(trimethylsilyl)ethoxy]methyl}-1H,2H,3H,5H-pyrrolo[3,4-b]carbazol-10-yl)methyl]-3-(dimethylamino)propanamide] — higher, > 10 µM
- Cc1c2c(c(CNC(=O)CN(C)C)c3c1[nH]c1ccccc13)C(=O)N(C)C2=O [{[({2,4-dimethyl-1,3-dioxo-1H,2H,3H,5H-pyrrolo[3,4-b]carbazol-10-yl}methyl)carbamoyl]methyl}dimethylazanium chloride] — higher, > 10 µM
- Cc1c2c(c(CNC(=O)CN(C)C)c3c1[nH]c1ccccc13)C(=O)N(Cc1ccccc1)C2=O [{[({2-benzyl-4-methyl-1,3-dioxo-1H,2H,3H,5H-pyrrolo[3,4-b]carbazol-10-yl}methyl)carbamoyl]methyl}dimethylazanium chloride] — higher, > 10 µM
